Source: patent US4992450A, “Piperidine opioid antagonists” (Eli Lilly and Company, priority 1989, dated 1991)
Counter-ions that a name gives are not always drawn. Like-named read-outs stand apart in the source and are kept apart here.

Tests used:
[1] = biological target: T1, mu receptor (Rattus norvegicus, UniProt P33535); assay: Opioid receptor binding displacement assay, mu site (rat whole brain minus cerebellum, 3H ligand); set-up: species or system Male Sprague Dawley rats
T1 construct: rat whole brain minus cerebellum for mu and delta sites; from tissue; host or cells: rat whole brain minus cerebellum, frozen pellet fraction
Experimental: (§1) This assay was conducted by the following procedure.
(§2) Male Sprague Dawley rats for mu and delta site experiments and male Hartley guinea pigs for kappa site experiments were sacrificed via decapitation and the brains were removed. The brain tissue, rat whole brain minus cerebellum for mu and delta sites and guinea pig cortex for the kappa site, was homogenized in a Teflon and glass tissue homogenizer. A supernatant I, pellet IV, fraction was frozen in a nitrogen freezer at 1.33 g/ml concentration and stored for not longer than five weeks prior to use. Pellets were rehydrated with physiological buffer prior to use.
(§3) The reaction was initiated by the addition of the rehydrated tissue which has been preincubated at 37° C. for 20 minutes. The reaction mixture was incubated in a 37° C. water bath for 20 minutes. The reaction was terminated by rapid filtration, (Amicon vacuum manifolds), through Whatman GF/C glass filters that had been presoaked in Krebs-Hepes buffer pH 7.4. The filters were then washed 2× with 5 ml of ice cold Krebs-Hepes buffer pH 7.4. Washed filters were placed in scintillation vials and 10 ml PCS, (Amersham), was added and samples counted in a Searle D-300 beta counter. Means and standard error statistics were calculated for triplicate experimental determinations in certain cases. The procedure was slightly modified for the kappa site. The tissue was pretreated with 100 nM concentrations of mu and delta receptor site blockers. The incubation time for the reaction mixture was 45 minutes at 37° C.

[2] = biological target: T2, mu receptor (Mus musculus, UniProt P42866); assay: Mouse writhing assay, antagonism of morphine analgesia (mu); type: in vivo, CF-1 male mice; settings: sc, read-out: Mu AD50
T2 construct: Five CF-1 male mice (Charles River, Portage, Mich.); from tissue; host or cells: whole living CF-1 male mice (in vivo)

[3] = biological target: T3, kappa receptor (Mus musculus, UniProt P33534); assay: in vivo; set-up: species or system CF-1 male mice; settings: sc, read-out: Kappa AD50
T3 construct: Five CF-1 male mice (Charles River, Portage, Mich.); from tissue; host or cells: whole living CF-1 male mice (in vivo)

[4] = test system: meal fed obese Zucker rats; assay: Food consumption assay in meal fed obese Zucker rats; type: in vivo; settings: Rattus norvegicus, sc, 4 h, amount to decrease food consumption 20% during first four hours
Excerpt: The following assay was employed to evaluate the ability of the compounds of the invention to effect food and water consumption of meal fed obese Zucker rats.
According to this procedure, 3-4 month old obese Zucker rats were trained to eat food daily from 8:00 A.M. to 4:00 P.M. only, such that the body weight gain approximates that if the rats were fed ad libitum. These rats were allowed to consume water at all times. Four groups of rats with four rats in each group, two female and two male, were formed. One group served as control for the other three groups each day. Each of the other groups were given a subcutaneous dose of the compound to be evaluated. The test compound was formulated in physiological saline containing 10% dimethylsulfoxide by volume.
Animals remained drug free for 4 days before the next test. Food and water consumption of each rat were measured for the first four hours. A test on one compound was run for three consecutive days. The drug effect was expressed as the percent of the control for that test day.
In the Table, column 1 gives the Example Number of the compound evaluated; and column 2 provides the ED20 in mg/kg, wherein ED20 represents the amount of compound evaluated in mg/kg necessary to decrease food consumption 20% during the first four hours of the experiment.

[5] = biological target: T4, kappa receptor (Cavia porcellus, UniProt P41144); assay: Opioid receptor binding displacement assay, kappa site (guinea pig cortex, 3H ligand); set-up: species or system male Hartley guinea pigs
T4 construct: guinea pig cortex for the kappa site; from tissue; host or cells: guinea pig cortex, frozen pellet fraction
Experimental: as §1, §2, §3

[6] = biological target: T5, kappa receptors (Rattus norvegicus, UniProt P34975); assay: Rat diuresis assay, antagonism of bremazocine-induced urination; type: in vivo, male Long-Evans hooded rats; settings: sc, rats, s.c., urinary output reduced to 50% of effect of 0.08 mg/kg bremazocine alone
T5 construct: sixty male Long-Evans hooded rats; from tissue; host or cells: whole living male Long-Evans hooded rats (in vivo)
Experimental: As such, the compounds of the invention were also evaluated in a rat diuresis assay conducted according to the following procedure described by Leander et al. in Drug Development Research 4:421-427 (1984) in an effort to further establish the ability of the present compounds to block kappa receptors.
According to this procedure, sixty male Long-Evans hooded rats (Charles River Breeding Laboratories, Portage, Mich.) weighing between about 300 and 500 grams each were housed either individually or in pairs in a temperature-controlled (23° C.) colony room which was illuminated between 6:00 A.M. and 6:00 P.M. Rodent chow and tap water were continuously available except during the measurement of urine output. The animals were used repeatedly, but no more frequently than twice a week.
The animals were then injected with various doses of the test compounds. To measure urine output, the animals were removed from the home cages, weighed, injected and placed in metabolism cages for 5 hr. Excreted urine was funneled into graduated cylinders. Cumulative urine volumes were determined at designated time intervals, usually at 2 and 5 hr after injection.
The compounds which are salt forms were dissolved in distilled water. If necessary, the compounds were dissolved in distilled water with the aid of either a few drops of lactic acid or hydrochloric acid and gentle warming. All injections were s.c. in a volume of 1 ml/kg of body weight. During tests for antagonism, two injections were given, one on each side of the body.
In the Table, column 1 provides the Example Number of the compound tested; column 2, the amount of compound in mg/kg necessary to reduce the urinary output to 50% of the effect produced by 0.08 mg/kg of bremazocine alone two hours after injection of bremazocine and the test compound; and column 3, the amount of compound in mg/kg necessary to reduce the urinary output to 50% of the effect produced by 0.08 mg/kg of bremazocine alone five hours after injection of bremazocine and the test compound.

[7] = 2 h, two hours after injection, read-out: AD50 Two Hours
[8] = 5 h, five hours after injection, read-out: AD50 Five Hours
[9] = rat brain minus cerebellum, pH 7.4, 37° C., 20 minutes, read-out: Ki Mu
[10] = guinea pig cortex, pH 7.4, 37° C., 45 minutes, mu and delta sites blocked (100 nM), read-out: Ki Kappa

T1 sequence (P33535 whole entry): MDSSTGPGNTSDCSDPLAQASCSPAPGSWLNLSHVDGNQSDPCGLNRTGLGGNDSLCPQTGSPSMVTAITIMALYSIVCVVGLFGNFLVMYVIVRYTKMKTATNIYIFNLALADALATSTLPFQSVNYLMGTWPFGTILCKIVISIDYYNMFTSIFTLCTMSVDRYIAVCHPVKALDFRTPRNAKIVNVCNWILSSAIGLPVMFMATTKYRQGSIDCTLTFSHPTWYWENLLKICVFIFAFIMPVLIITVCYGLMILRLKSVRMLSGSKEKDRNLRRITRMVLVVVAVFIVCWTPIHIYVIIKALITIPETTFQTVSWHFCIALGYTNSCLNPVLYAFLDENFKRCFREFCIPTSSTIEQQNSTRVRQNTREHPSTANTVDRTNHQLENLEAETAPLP
T5 sequence (P34975 whole entry): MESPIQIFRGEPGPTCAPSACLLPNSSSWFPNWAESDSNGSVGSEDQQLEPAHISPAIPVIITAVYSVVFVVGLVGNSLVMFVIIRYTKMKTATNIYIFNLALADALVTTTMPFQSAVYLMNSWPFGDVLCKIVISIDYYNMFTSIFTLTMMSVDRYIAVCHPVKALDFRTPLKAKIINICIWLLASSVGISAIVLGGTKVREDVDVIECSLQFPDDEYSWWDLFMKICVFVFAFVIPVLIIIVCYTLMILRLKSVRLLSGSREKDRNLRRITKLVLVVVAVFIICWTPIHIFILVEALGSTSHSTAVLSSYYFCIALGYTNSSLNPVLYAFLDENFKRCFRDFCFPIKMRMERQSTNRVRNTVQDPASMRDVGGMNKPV
T4 sequence (P41144 whole entry): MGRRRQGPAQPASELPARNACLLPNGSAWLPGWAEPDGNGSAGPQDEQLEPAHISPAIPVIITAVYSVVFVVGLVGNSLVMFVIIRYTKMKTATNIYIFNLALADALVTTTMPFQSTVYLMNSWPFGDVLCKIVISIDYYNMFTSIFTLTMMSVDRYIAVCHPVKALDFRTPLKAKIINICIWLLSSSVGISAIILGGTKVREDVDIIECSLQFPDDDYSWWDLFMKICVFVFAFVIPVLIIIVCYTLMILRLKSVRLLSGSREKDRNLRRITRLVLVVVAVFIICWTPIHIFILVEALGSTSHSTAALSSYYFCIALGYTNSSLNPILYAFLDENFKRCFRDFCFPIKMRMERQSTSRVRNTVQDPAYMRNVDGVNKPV
T3 sequence (P33534 whole entry): as the sequence (P34975 whole entry) above, with E11D, A17S, P51S, V308A counted along it
T2 sequence (P42866 whole entry): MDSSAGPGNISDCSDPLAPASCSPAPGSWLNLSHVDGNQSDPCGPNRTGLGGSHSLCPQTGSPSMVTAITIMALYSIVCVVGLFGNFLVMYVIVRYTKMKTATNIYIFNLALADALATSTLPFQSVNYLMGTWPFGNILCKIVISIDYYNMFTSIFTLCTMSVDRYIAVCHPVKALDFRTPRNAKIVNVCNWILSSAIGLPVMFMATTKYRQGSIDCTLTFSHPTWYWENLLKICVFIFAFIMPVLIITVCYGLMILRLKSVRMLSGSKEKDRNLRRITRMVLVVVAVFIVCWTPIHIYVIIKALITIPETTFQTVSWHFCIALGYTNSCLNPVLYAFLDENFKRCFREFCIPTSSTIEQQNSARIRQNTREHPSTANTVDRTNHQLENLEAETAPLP

| Structure (SMILES) | Ki [1] [nM] | ED50 [2] [mg/kg] | ED50 [3] [mg/kg] | ED20 [4] [mg/kg] | Ki [5] [nM] | ED50 [6, 7] [mg/kg] | ED50 [6, 8] [mg/kg] | Ki [1, 9] [nM] | Ki [5, 10] [nM] | Ki ([5]; read-out: Ki Kappa, guinea pig cortex, pH 7.4, 37° C., 45 minutes, mu and delta sites blocked (100 nM)) [nM] |
| --- | --- | --- | --- | --- | --- | --- | --- | --- | --- | --- |
| C[C@@H]1CN(CC[C@@H](O)C2CCCCC2)CC[C@]1(C)c1cccc(O)c1 [Example 26, trans-(-)-1-[R-(3-Hydroxy-3-cyclohexylpropyl)]-3,4-dimethyl-4-(3-hydroxyphenyl)piperidine] | 2.24 ± 0.17 | 0.07 | 0.52 | 0.35 |  |  |  |  |  |  |
| CC1CN(CC2CCCCC2)CCC1(C)c1cccc(O)c1 (stereo not drawn) [Example 10, trans-(±)-1-(Cyclohexylmethyl)-3,4-dimethyl-4-(3-hydroxyphenyl)piperidine hydrochloride] |  | 0.46 | 0.34 | 1.25 | 28.2 | 14.9 | 3.9 |  |  |  |
| C[C@H]1CN(CCC2C=CCC2)CC[C@@]1(C)c1cccc(O)c1 (relative stereo) [Example 7, trans-(±)-1-[2-(2-Cyclopenten-1-yl)ethyl]-3,4-dimethyl-4-(3-hydroxyphenyl)piperidine hydrochloride] |  | 0.11 | 0.12 | 0.34 | 1.04 | 1.3 | 1.38 |  |  |  |
| C=CCCCCN1CCC(C)(c2cccc(O)c2)C(C)C1 (stereo not drawn) [Example 21, trans-(±)-1-(5-n-Hexenyl)-3,4-dimethyl-4-(3-hydroxyphenyl)piperidine hydrochloride] | 1.61 |  |  | 9.37 |  |  |  |  |  |  |
| C[C@H]1CN(CCc2ccccc2)CC[C@@]1(C)c1cccc(O)c1 (relative stereo) [Compound D, 3-(3α,4β-Dimethyl-1-phenethyl-4α-piperidyl)phenol hydrochloride, reference compound] |  | 0.16 | 1.38 | 0.94 |  |  |  | 1.2 | 51 |  |
| CC(C)CCCCN1CCC(C)(c2cccc(O)c2)C(C)C1 (stereo not drawn) [Example 4, trans-(±)-1-(5-Methylhexyl)-3,4-dimethyl-4-(3-hydroxyphenyl)piperidine hydrochloride] |  | 0.35 | 0.23 | 0.05 |  | 0.17 | 0.46 |  |  | 6.04 ± 0.44 |
| C[C@H]1CN(CCC(O)c2cccs2)CC[C@@]1(C)c1cccc(O)c1 (relative stereo) [Example 40, trans-(±)-1-[R,S-[3-Hydroxy-3-(2-thienyl)-propyl]-3,4-dimethyl-4-(3-hydroxyphenyl)piperidine hydrochloride] |  | 0.065 | 0.14 | 0.11 |  | 3.78 | 1.44 | 0.5 |  |  |
| C[C@H]1CN(CCC(O)C2CCCCC2)CC[C@@]1(C)c1cccc(O)c1 (relative stereo) [Example 27, trans-(±)-1-[R,S-(3-Hydroxy-3-cyclohexylpropyl)]-3,4-dimethyl-4-(3-hydroxyphenyl)piperidine hydrochloride] |  | 0.07 | 0.14 | 0.04 |  |  |  | 0.22 ± 0.03 | 5.04 ± 0.58 |  |
| CC1CN(CCCC2CCCCC2)CCC1(C)c1cccc(O)c1 (stereo not drawn) [Example 11, trans-(±)-1-(3-Cyclohexylpropyl)-3,4-dimethyl-4-(3-hydroxyphenyl)piperidine hydrochloride] |  | 0.19 | 0.35 | 0.15 | 2.34 | 1.9 | 1.02 |  |  |  |
| COC(CCN1CC[C@@](C)(c2cccc(O)c2)[C@@H](C)C1)C1CCCCC1 (relative stereo) [Example 31, trans-(±)-1-[R,S-(3-Methoxy-3-cyclohexylpropyl)]-3,4-dimethyl-4-(3-hydroxyphenyl)piperidine hydrochloride] |  | 1.42 | 0.44 |  |  |  |  | 0.77 | 3.82 |  |
| C=C(C)CCCN1CCC(C)(c2cccc(O)c2)C(C)C1 (stereo not drawn) [Example 3, trans-(±)-1-(4-Methyl-4-pentenyl)-3,4-dimethyl-4-(3-hydroxyphenyl)piperidine hydrochloride] | 2.95 ± 1.12 | 0.08 | 0.29 | 0.29 | 13.9 ± 6.66 | 0.27 | 0.39 |  |  |  |
| C[C@H]1CN(CCC(=O)C2CCCC2)CC[C@@]1(C)c1cccc(O)c1 (relative stereo) [Example 17, trans-(±)-1-(1-Cyclopentylpropanon-3-yl)-3,4-dimethyl-4-(3-hydroxyphenyl)piperidine hydrochloride] | 0.84 | 0.21 | 0.19 | 0.31 | 0.55 |  |  |  |  |  |
| CC1CN(CCCc2ccsc2)CCC1(C)c1cccc(O)c1 (stereo not drawn) [Example 41, trans-(±)-1-[3-(3-Thienyl)propyl]-3,4-dimethyl-4-(3-hydroxyphenyl)piperidine hydrochloride] |  | 0.12 | 0.24 |  | 10.3 | 2.7 | 1.9 |  |  |  |
| C[C@H]1CN(C)CC[C@@]1(C)c1cccc(O)c1 (relative stereo) [Compound B, 3-(1,3α,4β-Trimethyl-4α-piperidyl)phenol hydrochloride, reference compound] |  | 0.74 | 2.5 | 3.99 |  |  |  | 80 |  |  |
| C[C@@H]1CN(CC[C@H](O)C2CCCCC2)CC[C@]1(C)c1cccc(O)c1 [Example 24, trans-(-)-1-[S-(3-Hydroxy-3-cyclohexylpropyl)]-3,4-dimethyl-4-(3-hydroxyphenyl)piperidine] |  | 0.05 | 0.24 | 0.12 |  |  |  | 1.4 ± 0.61 | 11.4 ± 4.29 |  |
| CC1CN(CCC2CCCC2)CCC1(C)c1cccc(O)c1 (stereo not drawn) [Example 6, trans-(±)-1-(2-Cyclopentylethyl)-3,4-dimethyl-4-(3-hydroxyphenyl)piperidine hydrochloride] | 0.94 | 0.13 | 0.22 | 0.33 |  |  | 0.67 |  |  |  |
| CC(C)CCN1CCC(C)(c2cccc(O)c2)C(C)C1 (stereo not drawn) [Example 16, trans-(±)-1-(3-Methylbutyl)-3,4-dimethyl-4-(3-hydroxyphenyl)piperidine hydrochloride] |  | 0.87 | 0.62 | > 20 | 70.1 | 7.7 | 4.45 |  |  |  |
